The series relates to CYP3A4. The experiment in a line: Plasma 4β-hydroxycholesterol Day 14/Day 1 ratio (CYP3A4 induction). The format is in vivo, human. The following applies: repeated doses up to 20 mg BID, 14 days. The protocol: The plasma 4β-hydroxycholesterol on Day 14 versus Day 1 pre-dose concentration ratios were calculated to evaluate the potential for CYP3A4 enzyme induction by Compound 1 after repeated doses in Part 2.
PK population included all participants exposed to Compound 1 with no major or critical deviations related to Compound 1 and for whom PK data were considered sufficient and interpretable. PK parameters were summarized by descriptive statistics for each dose level group. Distribution of Tmax values was represented by histogram plots for each dose level group. In Part 1a, dose proportionality was assessed using a linear model on Cmax, AUClast and AUC. […] Steady state was assessed on Ctrough using a non-linear model. Accumulation was assessed using a linear model on log-transformed accumulation ratio. Dose proportionality was assessed using a power model on Cmax and AUCtau on Day 1 and Day 14, separately. […] In Part 1b, CSF concentration was described by dose level group and CSF to plasma unbound concentration ratios calculated were described in the same way. 4β-hydroxycholesterol on Day 14 versus Day 1 pre-dose concentration ratios were summarized using descriptive statistics by dose level group and point estimates with 90% confidence interval (90% CI) for the geometric mean of the log-transformed Day14/Day1 ratio was calculated in Part 2. […]

The values that follow come from US20240100065A1, “METHODS FOR TREATING RECEPTOR-INTERACTING PROTEIN KINASE 1-MEDIATED DISEASES” (Genzyme Corporation, priority 2022, published 2024).

With `CC(C)(C(=O)N1CCOc2c(C#N)cncc2C1)C(F)F` [Compound 1, 4-(3,3-difluoro-2,2-dimethyl-propanoyl)-3,5-dihydro-2H-pyrido[3,4-f] [1,4]oxazepine-9-carbonitrile], the “Potential for CYP3A4 induction” value is “no potential for CYP3A4 induction”.
